Read-outs that look alike come from different tables or passages of the source. Positions of bridges follow the written chain, without caps; N, C: chain ends. Non-standard residues stand in square brackets, D forms with d. Residues, ends and D or L forms follow the SMILES beside them. R8 = C=CCCCCCC[C@@](C)(N)C(=O)O; S5 = C=CCCC[C@](C)(N)C(=O)O
Experiments:
[1] = tested on: human red blood cells (RBCs); type: cell-based; conditions: for % Hemolysis at 50 μg/ml: red cells of human, 1 h
Source text: One of the key obstacles that have long impeded the use of AMPs in systemic infections such as sepsis is their tendency to lyse human cells, such as red blood cells (RBCs). Thus, it is critical to minimize hemolytic activity as much as possible to achieve a therapeutic window. […] Of note, in those circumstances where hydrocarbon staples increase hemolytic activity due to increasing hydrophobicity, the alkene moiety can be modified, e.g., by dihydroxylation, to install hydrophilic residues and potentially mitigate hemolysis.
Hemolytic Activity Assay For the determination of hemolytic activity, the following protocol was applied: human blood samples were centrifuged to isolate red blood cells (RBCs), which were then washed and suspended in phosphate-buffered saline to yield a 1% (v/v) suspension. This suspension was then added to serial dilutions of peptide stocks in water in clear round-bottom polypropylene 96-well plates and the plates incubated for 1 hour at 37° C. After incubation, the plates were centrifuged and the supernatant isolated to determine the amount of hemoglobin released using a spectrophotometer (570 nm). The minimum hemolytic concentration (MHC) was determined by assessing the peptide concentration at which there was less than 1% hemoglobin release.

circular dichroism = conditions: 10 mM phosphate buffer; pH 7.4; ns °C; 100 uM
MRSA = type: cell-based
Description: (§1) Antimicrobial Activity Assay The following microbroth dilution protocol was adapted to determine the MIC of each peptide. First, Mueller-Hinton broth (MHB) was passed through an anion exchange column to remove polyanionic species and generate refined MHB. This refined broth was then used in the standard microbroth dilution protocol devised by Hancock et al. for 96 well plates. […] Briefly, bacterial cells were grown overnight in refined MHB at 37° C. and then diluted and allowed to grow again for several hours. Serial dilutions of peptide stocks in water (10 μl) were prepared using clear round-bottom polypropylene 96-well plates. Then 90 μl of bacteria in refined MHB was added to give a final inoculum of 5×10^5 CFU/ml. The plates were then covered with porous tape to reduce evaporation, and incubated for 20-24 hours at 37° C.

S. Aureus = type: cell-based
Description: as §1

P. aeruginosa = type: cell-based
Description: as §1

B. cereus = type: cell-based
Description: as §1

E. coli = type: cell-based, Escherichia coli; conditions: for Antimicrobial Activity NIC (μg/ml) E. coli: Table 1, microbroth dilution, refined MHB, 20-24 hours at 37° C.
Description: as §1

Row | Antimicrobial Activity MIC (μg/ml) MRSA (MRSA; Table 2) [µg/mL] | Antimicrobial Activity MIC (μg/ml) S. Aureus (S. Aureus; Table 2) [µg/mL] | Antimicrobial Activity MIC (μg/ml) P. aeruginosa (P. aeruginosa; Table 2) [µg/mL] | Antimicrobial Activity MIC (μg/ml) B. cereus (B. cereus; Table 2) [µg/mL] | Antimicrobial Activity MIC (μg/ml) E. coli (E. coli; Table 2) [µg/mL] | Antimicrobial Activity MIC (μg/ml) MRSA (MRSA) [µg/mL] | Antimicrobial Activity MIC (μg/ml) S. Aureus (S. Aureus) [µg/mL] | Antimicrobial Activity MIC (μg/ml) P. aeruginosa (P. aeruginosa) [µg/mL] | Antimicrobial Activity MIC (μg/ml) B. cereus (B. cereus) [µg/mL] | Antimicrobial Activity MIC (μg/ml) E. coli (E. coli) [µg/mL] | Structure (SMILES) | hemolytic activity (in words) [1] | % Hemolysis at 50 μg/ml [1] [%] | helicity (circular dichroism) [%] | Antimicrobial Activity NIC (μg/ml) E. coli (E. coli) [µg/mL]
1 | >50 | 50 | 12.5 | 25 | 6.25 | – | – | – | – | – | CC(C)C[C@H](NC(=O)[C@H](CC(C)C)NC(=O)[C@H](CCCNC(=N)N)NC(=O)[C@H](Cc1c[nH]cn1)NC(=O)[C@@H](NC(=O)[C@H](CCCNC(=N)N)NC(=O)CNC(=O)[C@@H](NC(=O)[C@@H]1CCCN1C(=O)[C@H](Cc1c[nH]c2ccccc12)NC(=O)[C@H](CCC(N)=O)NC(=O)[C@H](CC(C)C)NC(=O)[C@]1(C)CCCC=CCCC[C@](C)(NC(=O)[C@H](CCCNC(=N)N)NC(=O)[C@@H](N)[C@@H](C)O)C(=O)N[C@@H](CO)C(=O)N[C@@H](CCCNC(=N)N)C(=O)N[C@@H](C)C(=O)N1)C(C)C)C(C)C)C(=O)N[C@@H](CCCNC(=N)N)C(=O)N[C@@H](CCCCN)C(N)=O [BFStap(i + 4)11] (H-TR[S5]SRA[S5]LQWPVGRVHRLLRK-NH2; staple 3-7) | low hemolytic activity | 3.1 | 8 | –
2 | – | – | – | – | – | >50 | 25 | 12.5 | 12.5 | 6.25 | CC(C)C[C@H](NC(=O)[C@H](CC(C)C)NC(=O)[C@H](CCCNC(=N)N)NC(=O)[C@H](Cc1c[nH]cn1)NC(=O)[C@@H](NC(=O)[C@]1(C)CCCC=CCCCCCC[C@@](C)(NC(=O)[C@H](C)NC(=O)[C@H](CCCNC(=N)N)NC(=O)[C@H](CO)NC(=O)[C@H](CO)NC(=O)[C@H](CCCNC(=N)N)NC(=O)[C@@H](N)[C@@H](C)O)C(=O)N[C@@H](CC(C)C)C(=O)N[C@@H](CCC(N)=O)C(=O)N[C@@H](Cc2c[nH]c3ccccc23)C(=O)N2CCC[C@H]2C(=O)N[C@@H](C(C)C)C(=O)NCC(=O)N1)C(C)C)C(=O)N[C@@H](CCCNC(=N)N)C(=O)N[C@@H](CCCCN)C(N)=O [BFStap(i + 7)6] (H-TRSSRA[R8]LQWPVG[S5]VHRLLRK-NH2; staple 7-14) | – | 9.5 | 7.3 | –
3 | – | – | – | – | – | – | – | – | – | – | CC(C)C[C@H](NC(=O)CNC(=O)[C@H](C)NC(=O)[C@]1(C)CCCC=CCCC[C@](C)(N)C(=O)N[C@@H](CCCNC(=N)N)C(=O)N[C@@H](CO)C(=O)N[C@@H](CO)C(=O)N1)C(=O)N[C@@H](CCC(N)=O)C(=O)N[C@@H](Cc1c[nH]c2ccccc12)C(=O)N1CCC[C@H]1C(=O)N[C@H](C(=O)NCC(=O)N[C@@H](CCCNC(=N)N)C(=O)N[C@H](C(=O)N[C@@H](Cc1c[nH]cn1)C(=O)N[C@@H](CCCNC(=N)N)C(=O)N[C@@H](CC(C)C)C(=O)N[C@@H](CC(C)C)C(=O)N[C@@H](CCCNC(=N)N)C(=O)N[C@@H](CCCCN)C(N)=O)C(C)C)C(C)C [BFStap(i + 4)13] (H-[S5]RSS[S5]AGLQWPVGRVHRLLRK-NH2; staple 1-5; N-terminus and C-terminus assumed) | – | 2.4 | 0 | >100
4 | – | – | – | – | – | – | – | – | – | – | CC(C)C[C@H](NC(=O)CNC(=O)[C@H](C)NC(=O)[C@H](CCCNC(=N)N)NC(=O)[C@H](CO)NC(=O)[C@H](CO)NC(=O)[C@H](CCCNC(=N)N)NC(=O)[C@@H](N)[C@@H](C)O)C(=O)N[C@]1(C)CCCCCCC=CCCC[C@@](C)(C(=O)N[C@@H](CCCNC(=N)N)C(=O)N[C@@H](CC(C)C)C(=O)N[C@@H](CC(C)C)C(=O)N[C@@H](CCCNC(=N)N)C(=O)N[C@@H](CCCCN)C(N)=O)NC(=O)[C@H](C(C)C)NC(=O)[C@H](CCCNC(=N)N)NC(=O)CNC(=O)[C@H](C(C)C)NC(=O)[C@@H]2CCCN2C(=O)[C@H](Cc2c[nH]c3ccccc23)NC1=O [BFStap(i + 7)4] (H-TRSSRAGL[R8]WPVGRV[S5]RLLRK-NH2; staple 9-16; N-terminus and C-terminus assumed) | – | 57.0 | 2.4 | 3.1

From US12391733B2, “Stapled intracellular-targeting antimicrobial peptides to treat infection” (priority 2016, dated 2025)
